Data on two compounds can be found in patent US20080242635A1, “Method for Lengthening the Seasonal Mobility Period of Fish” (priority 2005, published 2008).

One assay concerns koi fish. Put plainly: Pond test: fish feed to lengthen the period of seasonal mobility of koi (Example 5). The assay is classed as in vivo. The settings on record: relative index 1 to 5 (1 fully immobile, 5 fully mobile), 10 gram feed per day, additive per Table 1. The text has this: Four ponds of 40 cubic meters each, all contained 50 koi fish with an approximate total body weight of 50 kg were used to show effectiveness of the fish feed according to the invention. One pond served as a control were the fish were fed with control feed, the fish in the other ponds received a feed according to the invention as prepared in examples 2 to 4 above. The experiment started when the temperature of the water was about 2 degrees Celsius.
The fish in control pond were fed with 10 gram Cyprico White 3 mm floater feed per day, whereas the fish in the other pond were fed with 10 gram of the feeds as described in Example 2, 3 and 4 Table 1).
This effect increased gradually every day until after 5 days the fish were fully mobile, whereas the temperature of the water was still between 2 and 3 degrees Celsius. Mobility of the fish was scored on a relative index of 1 to 5 wherein 1 is fully immobile and 5 is fully mobile Table 2). The water in the control pond was at exactly the same temperature as that of the other ponds, however the fish in the control pond were completely immobile. […] The fish were healthy and fully mobile whereas the control group was almost fully immobile.
Fish in ponds 1, 2 and 3 were fed with fish feed according to the invention, fish in pond 4 received control feed. Further details are described in the examples.

For another assay, the system named is fish. Put plainly: Lengthening the seasonal mobility period of fish by feed supplements. The assay is classed as in vivo. As to conditions: for Lengthening of the seasonal mobility period of fish (in words): feed supplement.

Turning to `O=C(O)Cc1c[nH]c2ccccc12` [free IAA, indole-3-acetic acid], the Mobility is on record as 1 with koi fish (day 1, water 2 degrees Celsius); 1 in the assay with koi fish (day 2, water 2 degrees Celsius); 1 with koi fish (day 3, water 3 degrees Celsius); 2 with koi fish (day 4, water 3 degrees Celsius); 2 in the assay with koi fish (day 5, water 3 degrees Celsius); 3 in the assay with koi fish (day 8, water 3 degrees Celsius). Moreover, the Mobility with koi fish (day 12, water 3 degrees Celsius) is listed as 2; in the assay on koi fish (day 16, water 4 degrees Celsius), 2; with koi fish (day 20, water 5 degrees Celsius) it was 3; in the assay with koi fish (day 24, water 5 degrees Celsius) it was 4; in the assay with koi fish (day 28, water 6 degrees Celsius), 4. For the same compound, the “Lengthening of the seasonal mobility period of fish (in words)” value in the assay on fish is “Particularly good results”.
In the case of 1,3 and 1,6 beta glucans, the “Lengthening of the seasonal mobility period of fish (in words)” value in the assay with fish is “very useful”. Also, the “Daily intake, optimum of cost benefit” value in the assay with fish (in vivo) is “around 60 ug/kglw/day”.
